In patent US20230002346A1, “NEW COMPOUNDS AND METHODS” (BenevolentAl Bio Limited, priority 2019, published 2023):
In brackets after ≈: the same amount, converted by molar mass.

How the values were obtained:
[1] = Brain to plasma (B:P) ratio in rat; format: in vivo, Sprague Dawley Rats; conditions: male, Sprague Dawley, po, p.o. 3.0 mg/kg, 30% HPBC in water; for Kp: timepoints averaged 0.5-4 h
Experimental: Male Sprague Dawley Rats 300-350 g (Charles River, UK) were group housed, n=3, under a 12 h light/dark cycle with food and water available ad libitum. At 17:00 on the day prior to dosing all food was removed. On the day of dosing animals were weighed, tail marked and dosed via oral gavage with compound at 3 mg/kg in a volume of 5 mL/kg. Animals were culled at 30 min, 1 h and 4 h post dose via intra-peritoneal administration of pentobarbital. Post mortem blood was withdrawn via cardiac puncture, and briefly stored in K2 EDTA blood tubes on ice before being spun at 14,000 g for 4 min at 4° C. Plasma was withdrawn into a 96 well plate, placed on dry ice and stored at −80° C. Brains were quickly dissected and placed on dry ice before storage at −80° C. Bioanalysis of plasma and brain samples is performed as detailed below. Methods were prepared with guidance from industry standard documents.^i,ii […] Calibration lines are prepared in control male Sprague-Dawley Rat plasma at known concentrations in the range of 1-10000 ng/mL by spiking 2.5 μL of calibration spiking solution into 25 μL control plasma. Experimental samples are thawed to RT and 25 μL aliquots are extracted alongside the calibration lines using protein precipitation (agitation for at least 5 min at RT with 400 μL of MeCN containing 25 ng/mL tolbutamide as an internal standard). Protein precipitates are separated from the extracted test compound by centrifugation at 4000 rpm for 5 min, 4° C. […] Samples are analysed by UPLC-MS/MS on either an API6500 QTrap or Waters 30 TQS mass spectrometer using previously optimised analytical MRM (multiple reaction monitoring) methods, specific to the test compound. The concentration of test compound in isolated samples is determined following analysis of the samples against the two replicates of the calibration line, injected before and after the sample set with an appropriate regression and weighting used. Only samples within 20% of the expected test concentration are included in the calibration line and any samples that fall outside of the limits of the calibration line will be deemed to be less than or above the limit of quantification (LLoQ/ALoQ). […] Calibration lines are prepared in control male Sprague-Dawley Rat brain homogenate at known concentrations in the range of 3-30000 ng/g by spiking 2.5 μL of calibration spiking solution into 25 μL control homogenate. To prepare control and experimental brain homogenates, brains are thawed, weighed and a volume of diluent added (water) in the ratio of 2 mL per gram of brain. Homogenisation of brains is performed by bead-beater homogenisation using Precellys Evolution and CK14 7 mL small ceramic bead homogenisation tubes. Aliquots of 25 μL experimental sample are extracted alongside the calibration lines using protein precipitation (agitation for at least 5 min at RT with 400 μL of MeCN containing 25 ng/mL tolbutamide as an internal standard). Protein precipitates are separated from the extracted test compound by centrifugation at 4000 rpm for 5 min, 4° C. […] Samples are analysed by UPLC-MS/MS on either an API6500 QTrap or Waters TQS mass spectrometer using previously optimised analytical MRM (multiple reaction monitoring) methods, specific to the test compound. The concentration of test compound in isolated samples is determined following analysis of the samples against the two replicates of the calibration line, injected before and after the sample set with an appropriate regression and weighting used. Only samples within 20% of the expected test concentration are included in the calibration line and any samples that fall outside of the limits of the calibration line will be deemed to be less than or above the limit of quantification (LLoQ/ALoQ). Total brain to plasma (B:P) ratios were calculated by dividing the concentration in the brain by the concentration in plasma for each timepoint. The mean brain to plasma ratio is calculated by averaging these brain to plasma ratios across certain timepoints. […]

hERG channel = target: T1, hERG channel (Homo sapiens, UniProt Q12809); test: hERG assay (QPatch automated patch clamp, CHO cells); format: cell-based; conditions: CHO cells expressing hERG, whole-cell patch clamp, 0.003 μM to 10 μM
T1 construct: expressed in transfected cells
T1 sequence (Q12809 whole entry): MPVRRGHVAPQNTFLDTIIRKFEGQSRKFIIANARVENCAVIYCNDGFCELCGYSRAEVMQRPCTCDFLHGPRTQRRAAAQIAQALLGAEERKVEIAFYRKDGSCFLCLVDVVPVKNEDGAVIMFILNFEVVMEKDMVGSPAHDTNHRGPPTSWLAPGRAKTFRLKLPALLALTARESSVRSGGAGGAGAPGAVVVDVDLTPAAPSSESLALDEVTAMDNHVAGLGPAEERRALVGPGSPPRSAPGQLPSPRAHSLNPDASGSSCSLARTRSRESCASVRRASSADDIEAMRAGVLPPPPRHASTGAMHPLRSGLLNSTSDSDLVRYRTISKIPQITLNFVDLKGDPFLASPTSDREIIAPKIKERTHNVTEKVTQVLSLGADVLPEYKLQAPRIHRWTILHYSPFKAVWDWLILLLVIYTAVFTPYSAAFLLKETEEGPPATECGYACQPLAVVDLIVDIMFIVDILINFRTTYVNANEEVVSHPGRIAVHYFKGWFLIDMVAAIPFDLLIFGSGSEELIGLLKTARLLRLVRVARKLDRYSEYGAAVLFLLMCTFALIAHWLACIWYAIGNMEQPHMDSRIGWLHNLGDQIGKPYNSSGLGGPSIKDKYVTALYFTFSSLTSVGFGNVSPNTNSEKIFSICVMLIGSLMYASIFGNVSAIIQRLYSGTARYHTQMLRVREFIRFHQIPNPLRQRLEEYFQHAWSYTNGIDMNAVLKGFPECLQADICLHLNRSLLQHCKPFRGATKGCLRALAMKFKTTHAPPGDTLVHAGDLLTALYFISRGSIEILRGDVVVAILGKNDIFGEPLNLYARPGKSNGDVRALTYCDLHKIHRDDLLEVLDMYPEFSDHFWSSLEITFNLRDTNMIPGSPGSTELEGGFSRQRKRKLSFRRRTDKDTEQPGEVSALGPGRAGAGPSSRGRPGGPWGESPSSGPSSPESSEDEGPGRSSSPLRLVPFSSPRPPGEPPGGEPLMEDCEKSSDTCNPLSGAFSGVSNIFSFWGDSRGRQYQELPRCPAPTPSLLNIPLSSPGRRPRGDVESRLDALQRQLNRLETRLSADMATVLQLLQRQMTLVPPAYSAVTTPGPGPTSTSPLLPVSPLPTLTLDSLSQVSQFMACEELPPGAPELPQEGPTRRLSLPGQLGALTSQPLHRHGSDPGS
Description: The human ether-a-go-go related gene (hERG) potassium channel (Kv11.1) contributes to human cardiac action potential repolarisation. Inhibition of hERG channels can prolong the human cardiac action potential, resulting in QTc prolongation and potentially lethal arrhythmias (e.g. Torsade de Pointes).
Test samples were screened against the hERG channel on a QPatch 48 gigaseal automated patch clamp platform, using a Chinese Hamster Ovary (CHO) cell line stably expressing the human ether-á-go-go related gene, which encodes the hERG channel. All recordings were made in the conventional whole-cell configuration and performed at RT ([…]) using standard single hole chips (Rchip 1.5-4M0). Series resistance (4-15Mc) was compensated by >80%. Currents were elicited from a holding potential of −90 mV using the industry standard “^+40/−40” voltage protocol, which was applied at a stimulus frequency of 0.1 Hz. On achieving the whole-cell configuration, vehicle (0.1% DMSO v/v in external recording solution) was applied to each cell in two bolus additions with a 2 min recording period between each addition. Following the vehicle period, eight increasing concentrations of test sample were applied from 0.003 μM to 10 μM as a single bolus addition per test concentration, and the effects on hERG tail current amplitude measured during the 2 min recording period. Each eight-point concentration-response curve was constructed using cumulative single sample additions of each concentration to the same cell. The positive control used in this study was verapamil hydrochloride (Tocris, Cat #0654, Batch #5A/61673) and prepared to a stock concentration of 10 mM in 100% DMSO and kept as frozen aliquots.
Data analysis: All cells passing the QC parameters (i.e. >200 pA outward current, membrane resistance and rundown) are selected as ‘passed QC’ using the QPatch software, which then calculates the mean peak current for the last three sweeps at the end of each concentration application period from the cursor positions defined. Percent inhibition is calculated for each test concentration application period as the reduction in mean cursor value (peak current or charge) relative to the cursor value measured at the end of the control (i.e. vehicle) period. The percent inhibition values from each cell are used to construct concentration-response curves employing a four parametric logistic fit with 0 and 100% inhibition levels fixed at very low and very high concentrations, respectively, and a free Hill slope factor. The IC50 (50% inhibitory concentration) and Hill coefficient are then determined, but only data from cells with Hill slopes within 0.5>nH<2.0 are included. The IC50 data reported below represents the mean (and S.D.) of at least three separate cells (N≥3). […] Compounds of the invention show reduced hERG inhibitory activity compared to the reference examples.

[2] = Kinetic aqueous solubility assay; format: physicochemical; conditions: aqueous buffer, kinetic from dmso stock, 0.05M potassium phosphate buffer pH 7.4, 250 μM spike, RT
Experimental: Using a 10 mM stock solution of test compound in 100% DMSO, test compounds were spiked into 0.05M potassium phosphate buffer (pH 7.4) at a final concentration of 250 μM. Samples in buffer (n=2 aqueous samples, in 96-well plates) were allowed to equilibrate at RT on an orbital shaker for 30 min (300 rpm) to induce precipitation of test compounds. The appearance of each sample was determined by visual examination and noted (clear, cloudy, precipitate observed etc.). […] The concentration of compound in phosphate buffer filtrate was determined by comparing the UV absorbance peak area of each replicate against that of the calibration standards. […] Compounds of the invention have much improved solubility compared to the reference examples.

[3] = Rat PK profile (bioavailability, clearance, half-life); format: in vivo; conditions: male, Sprague Dawley, plasma, i.v. dose 1 mg/kg; for clearance / half-life: iv; for half-life: read-out: T½ (converted); for bioavailability: po, p.o. dose 3 mg/kg
Experimental: Male Sprague Dawley Rats 300-350 g (Charles River, UK) were group housed, n=3, under a 12 h light/dark cycle with food and water available ad libitum. At 17:00 on the day prior to dosing all food was removed. On the day of dosing animals were weighed, tail marked and dosed via oral gavage with compound at 3 mg/kg in a volume of 5 mL/kg. Animals were culled at 30 min, 1 h and 4 h post dose via intra-peritoneal administration of pentobarbital. Post mortem blood was withdrawn via cardiac puncture, and briefly stored in K2 EDTA blood tubes on ice before being spun at 14,000 g for 4 min at 4° C. Plasma was withdrawn into a 96 well plate, placed on dry ice and stored at −80° C. Brains were quickly dissected and placed on dry ice before storage at −80° C. Bioanalysis of plasma and brain samples is performed as detailed below. Methods were prepared with guidance from industry standard documents.^i,ii
A 10 mM DMSO stock is used to prepare spiking solutions of test compound in the range of 10-100,000 ng/mL in diluent (MeCN:water, 1;1). Calibration lines are prepared in control male Sprague-Dawley Rat plasma at known concentrations in the range of 1-10000 ng/mL by spiking 2.5 μL of calibration spiking solution into 25 μL control plasma. Experimental samples are thawed to RT and 25 μL aliquots are extracted alongside the calibration lines using protein precipitation (agitation for at least 5 min at RT with 400 μL of MeCN containing 25 ng/mL tolbutamide as an internal standard). Protein precipitates are separated from the extracted test compound by centrifugation at 4000 rpm for 5 min, 4° C. The resulting supernatants are diluted in a ratio of 1:2 with a relevant diluent (e.g. 0.1% formic acid in water or 1:1 MeOH:water). Samples are analysed by UPLC-MS/MS on either an API6500 QTrap or Waters 30 TQS mass spectrometer using previously optimised analytical MRM (multiple reaction monitoring) methods, specific to the test compound. The concentration of test compound in isolated samples is determined following analysis of the samples against the two replicates of the calibration line, injected before and after the sample set with an appropriate regression and weighting used. Only samples within 20% of the expected test concentration are included in the calibration line and any samples that fall outside of the limits of the calibration line will be deemed to be less than or above the limit of quantification (LLoQ/ALoQ).
Pharmacokinetic parameters such as bioavailability (% F), clearance (CL), half-life (T½) and volume of distribution are calculated by non-compartmental analysis using Phoenix Winnonlin 64 software (build 8.0). The bioavailability was calculated from p.o. dosed rats, whereas the clearance and half-life were calculated from i.v. dosed rats. Briefly, in vivo plasma concentrations, timepoints and dose values are imported into the software in a compatible format. Plasma concentration for each animal is plotted against time, and the elimination phase identified and selected. The area under the curve for each plot is calculated using a linear trapezoidal linear interpolation from which pharmacokinetic parameters can subsequently be determined. […] Compounds of the invention have much improved clearance (CL) and half-life (T½) compared to the reference examples.

COc1ccc(-n2cc(C(=O)Nc3ccc(OC(F)(F)Cl)cc3)ccc2=O)cn1 [Example 13, N-[4-[Chloro(difluoro)methoxy]phenyl]-1-(6-methoxy-3-pyridyl)-6-oxo-pyridine-3-carboxamide]
Kp [1]: 0.79

O=C(Nc1ccc(OC(F)(F)Cl)cc1)c1ccc(=O)n(-c2ccc(F)c(F)c2)c1 [Example 24, N-[4-(Chlorodifluoromethoxy)phenyl]-1-(3,4-difluorophenyl)-6-oxo-1,6-dihydropyridine-3-carboxamide]
IC50 (hERG channel): > 10 µM
Kp [1]: 0.68

COc1cccc(-n2cc(C(=O)Nc3ccc(OC(F)(F)Cl)cc3)ccc2=O)c1 [Example 35, N-[4-(Chlorodifluoromethoxy)phenyl]-1-(3-methoxyphenyl)-6-oxo-1,6-dihydropyridine-3-carboxamide]
IC50 (hERG channel): > 10 µM
Kp at 1 h ([1]; timepoint 1 h): 1.11

O=C(Nc1ccc(OC(F)(F)Cl)cc1)c1ccc(=O)n(-c2ccc(F)cc2)c1 [Example 42, N-[4-(Chlorodifluoromethoxy)phenyl]-1-(4-fluorophenyl)-6-oxo-1,6-dihydropyridine-3-carboxamide]
solubility at 30 min [2]: 120 µM (≈ 49.1 µg/mL)
Kp [1]: 0.98

O=C(Nc1ccc(OC(F)(F)Cl)cc1)c1ccc(=O)n(-c2cccc(F)c2)c1 [Example 47, N-[4-(Chlorodifluoromethoxy)phenyl]-1-(3-fluorophenyl)-6-oxo-1,6-dihydropyridine-3-carboxamide]
IC50 (hERG channel): > 10 µM
Kp [1]: 1.54

Cc1ccc(-n2cc(C(=O)Nc3ccc(OC(F)(F)Cl)cc3)ccc2=O)cn1 [Example 65, N-[4-(Chlorodifluoromethoxy)phenyl]-6′-methyl-2-oxo-2H-[1,3′-bipyridine]-5-carboxamide]
solubility at 30 min [2]: 170 µM (≈ 69 µg/mL)
Kp [1]: 0.31

Cn1cc(C(=O)Nc2ccc(OC(F)(F)Cl)cc2)cc(-c2cccnc2)c1=O [Example 81, N-[4-[Chloro(difluoro)methoxy]phenyl]-1-methyl-6-oxo-5-(3-pyridyl)pyridine-3-carboxamide]
clearance [3]: 3 mL/min/kg
half-life [3]: 372 min
bioavailability [3]: 102%

Cn1cc(C(=O)Nc2ccc(OC(F)(F)Cl)cc2)cc(-c2ccccc2)c1=O [Example 88, N-[4-[Chloro(difluoro)methoxy]phenyl]-1-methyl-6-oxo-5-phenyl-pyridine-3-carboxamide]
Kp [1]: 0.69

O=C(Nc1ccc(OC(F)(F)Cl)cc1)c1cnc(N2CC[C@@H](O)C2)c(-c2ccn[nH]2)c1 [Ref. ex. 1, N-[4-[Chloro(difluoro)methoxy]phenyl]-6-[(3R)-3-hydroxypyrrolidin-1-yl]-5-(1H-pyrazol-5-yl)pyridine-3-carboxamide, reference compound]
clearance [3]: 22 mL/min/kg
half-life [3]: 126 min
bioavailability [3]: 4%

O=C(Nc1ccc(OC(F)(F)F)cc1)c1cncc(-c2cccnc2)c1 [Ref. ex. 4, 5-(3-Pyridyl)-N-[4-(trifluoromethoxy)phenyl]pyridine-3-carboxamide, reference compound]
solubility at 30 min [2]: < 5 µM
IC50 (hERG channel): 4.7 µM
clearance [3]: 12 mL/min/kg
half-life [3]: 72 min
bioavailability [3]: 113%
